# From a melting point compilation (Tetko et al.; mined from patent text by program, amines drawn as free bases though some values may be those of a salt)
row,melting point [°C],SMILES
1,87 to 89,CC1C(=O)Oc2cc(C3CCCCC3)ccc21 (stereo unspecified)
2,207 to 209,CN(C)C(=O)c1cc(-c2ccccc2)c(=O)n2c1-c1ccccc1C2
3,132 to 135,CCOC(=O)Cn1c2c(c3ccc(Cl)c(Cl)c31)CCN(C(=O)OC(C)(C)C)CC2
4,115,Cc1c(-c2cnc(C(N)=O)c3[nH]c4cc(NC5CCOC5)ccc4c23)cccc1N1Cc2ccc(Cl)cc2C1=O (stereo unspecified)
5,222,CCOCN1C2=C(C(=O)CCC2)C(c2cccc([N+](=O)[O-])c2)C2=C1CCCC2=O
6,176,O=C(O)C(O)CSc1ccc(-c2ccccc2)cc1 (stereo unspecified)
7,88 to 96,CCOc1cccc(-c2ccnc(Nc3cccc(OC(F)(F)C(F)F)c3)n2)c1
8,72,O=C(O)CCOc1ccc(CNC(=O)C2Cc3ccccc3N2S(=O)(=O)c2ccc(-c3cccc(C(F)(F)F)c3)cc2)cc1 (stereo unspecified)
9,182 to 183,C=Cc1cccc(-n2ncc(-c3ccc(S(C)(=O)=O)cc3)c(-c3ccc(F)cc3)c2=O)c1
10,154 to 156,CC(C)(C)OC(=O)N1C(=O)C2(COc3cc4c(cc32)OCO4)c2c(Br)cccc21 (stereo unspecified)
11,116 to 118,C(=C(c1ccccc1)c1ccccc1)P(c1ccccc1)c1ccccc1
12,136 to 139,COC(=O)C1=Cc2cc(Br)ccc2N2CCCC2C1 (stereo unspecified)
13,204 to 207,CSc1ccc(-n2c(-c3ccc(F)cc3)nc(SC)c(C#N)c2=O)cc1
14,142,Clc1ccc(-c2noc3ccc(CBr)cc23)cc1
15,100 to 102,C#CC[C@H](c1nc2cccnc2c(=O)n1Nc1ccccc1)N(CCCNC(=O)OCc1ccccc1)C(=O)c1cccc(Cl)c1F
16,123 to 125,O=C1c2ccccc2C=C(Cl)C(Cl)c2ccccc21 (stereo unspecified)
17,109 to 110,CCOC(=O)C1(c2cccc(OCc3ccc4c(ccc(=O)n4C)c3)c2)CCOCC1
18,182 to 183,COc1ccc(-c2cc(C(N)=O)c(=O)n(CC3CC3)n2)cc1
19,244 to 248,Cc1cc(=O)c(-c2ccc(Oc3ccc(OC(F)(F)F)cc3)cc2)c(C)[nH]1
20,> 350,O=c1[nH]ncc2c1c(O)nc1cc(Cl)cc(Cl)c12
21,64 to 66,CC(=O)c1ccc2cc(C(C)Br)ccc2c1 (stereo unspecified)
22,45 to 95,C=C(Sc1ccc(Br)cc1)S(=O)(=O)c1ccc(Cl)cc1
23,210 to 211,CCc1c(NC(=O)c2cc3c(s2)CCCC3)cccc1-c1cc(N)c(=O)n(C)c1
24,192 to 195,COc1nc(NC(=O)NS(=O)(=O)c2ccccc2S(C)(=O)=O)nc(N(C)C)n1

row,melting point [°C],SMILES
1,205,O=C1COC(c2cccc(Cl)c2)c2cc(C3(c4ccc(Cl)cc4)OCCO3)ccc2N1 (stereo unspecified)
2,239 to 241,CS(=O)(=O)c1ccc(C=Cc2cc(=O)cc(-c3ccccc3)o2)cc1
3,134 to 135,CC(O)=C(C#N)C(=O)Nc1ccccc1
4,93 to 95,CC1(C)OC(=O)C(Oc2ccc(F)c(F)c2)=C1c1ccc(S(C)(=O)=O)cc1
5,56 to 57,COC(=O)c1cc(Br)c(Br)o1
6,121 to 123,O=C(NC=CC1OC1CCCNC(=O)c1ccc(OC(F)(F)F)cc1)c1ccc(OC(F)(F)F)cc1 (stereo unspecified)
7,98 to 102,CCS(=O)(=O)/C=C/c1ccc2[nH]cc(C3CCN(C)CC3)c2c1
8,207 to 209,OC1CC=CCC1N1CCN(C2CC=CCC2O)CC1 (stereo unspecified)
9,184 to 185,CC(C)(N)c1ccc(-c2nc(Nc3cccc(CCO)c3)ncc2Cl)cc1
10,76.6 to 77.4,CC1(C)CC(=O)C2C3CCCCC3C2(C)C1 (stereo unspecified)
11,198 to 199,C=CCN1Cc2nc3c(cnn3CCCl)c(N)c2C1=O
12,92 to 94,O=Cc1ccc2c(c1F)OC(c1ccccc1)(c1ccccc1)O2
13,269 to 271,COc1cc2c(cc1OC)C1(CCC(=O)NC1=O)CCC2=O (stereo unspecified)
14,142 to 144,CC(=O)c1ccc(Nc2cccc(Br)c2)c([N+](=O)[O-])c1
15,124 to 126,CCOP(C)(=O)CCNS(=O)(=O)c1ccc(C)cc1 (stereo unspecified)
16,177 to 179,C=CCOC(=O)Nc1ccc(N2CCN(N3C=NN(CC(C)(O)c4ccc(Cl)cc4Cl)C3)CC2)cc1 (stereo unspecified)
17,109 to 111,COc1cc(I)c(C(C)=O)cc1O
18,185,CC(=O)OC1CSC(Oc2cccnc2-c2ccoc2)C(OC(C)=O)C1OC(C)=O (stereo unspecified)
19,76 to 77,O=C(OC1COCCC1=O)c1ccccc1 (stereo unspecified)
20,206 to 209,COc1cccc2c1nc(C(F)F)n2-c1nc(N2CCOCC2)nc2c1ncn2-c1cccnc1
21,227,Cn1ccnc1-c1ccccc1Nc1nc(Nc2ccc3c(c2)C(C)(C)CCC(=O)N3)ncc1Cl
22,153,Cc1cccc(C(=O)COc2c(C(=O)c3ccc(Cl)c(C)c3Cl)c(C)nn2C)c1
23,158 to 160,CCCCn1ncc(/C=C(\Cc2cc3c(cc2OC)CCO3)C(=O)OCC)c1-c1ccc(Cl)cc1O
24,56 to 58,OC(c1ccccc1)c1cc2cc(Br)ccc2o1 (stereo unspecified)

row,melting point [°C],SMILES
1,224 to 227,O=C(O)c1cn(C2CC2)c2c(F)c(N3CC(N4CCCC4)C3)c(F)cc2c1=O
2,254,CSc1nc(=O)[nH]cc1Cl
3,35 to 37,COCCCCCCCCCCCCCCSCCCO
4,97 to 100,O=C(O)CCSC(CCCc1ccccc1)c1ccc(OCc2ccc3ccccc3n2)cc1 (stereo unspecified)
5,> 260,O=C1c2ccc3c4cccc5cccc(c6ccc(c2c36)C(=O)N1CCO)c54
6,174,Cn1ccnc1Sc1ccc2[nH]nc(N)c2c1
7,68 to 76,COC(=O)Cc1ccc(OCCNC(=O)C2Cc3ccccc3N2S(=O)(=O)c2ccc(-c3ccc(F)cc3)cc2)c(Cl)c1 (stereo unspecified)
8,98,Cc1cc(C2=NOC(C)(c3cc(Cl)cc(Cl)c3)C2)ccc1C(=O)NCC(O)CO (stereo unspecified)
9,179 to 181,CNS(=O)(=O)c1ccc(-c2ccc3oc(C4CCN(C(=O)OC(C)C)CC4)nc3c2)cc1
10,100 to 102,C=CCn1cc2c(c1)-c1ccc(Cl)cc1C(c1ccccc1F)=NC2
11,208,Cc1[nH]cnc1CSCCNC1=C([N+](=O)[O-])CCN1
12,163,COC(=O)c1cc2cc(C(=O)c3cccc(C(C)C#N)c3)sc2s1 (stereo unspecified)
13,328 to 331,Cc1[nH]c(=S)[nH]c(=O)c1Cc1cccnc1
14,102 to 103,CSc1ccccc1CNC(=O)c1ccc2cnccc2n1
15,84 to 86,OC1CCc2c(Cl)cc(Cl)cc2C1 (stereo unspecified)
16,275 to 278,CC(c1oc2ccccc2c(=O)c1-c1cccc(F)c1)n1nc(-c2ccc(CN)s2)c2c(N)ncnc21 (stereo unspecified)
17,163 to 165,CN1CCC(=O)N(c2cccc(Cl)c2Cl)C1=O
18,93.5 to 95.5,CN(c1ccccc1)c1nc(Cl)nc(N2CCOCC2)n1
19,183 to 184,O=C(Nc1ccc2c(c1)CS(=O)(=O)N2)C(=O)N1CCC(Cc2ccc(F)cc2)CC1
20,181 to 182,CCSC1(SCC)C(O)CC2C3CCC4=CC(=O)C=CC4(C)C3(F)C(OC(C)=O)CC21C (stereo unspecified)
21,184 to 185,C=CCOCc1c(CO)sc2c(=O)c(C(=O)NCc3ccc(Cl)cc3)cn(C)c12
22,209 to 212,Cc1nc(-c2[nH]c3ccccc3c2C#N)no1
23,150 to 152,Cn1cc(S(C)=O)c(=O)c2ccsc21 (stereo unspecified)
